{
  "source": "patent US20240238274A1",
  "about": "“INHIBITORS OF UBIQUITIN SPECIFIC PEPTIDASE 22 (USP22) AND USES THEREOF FOR TREATING DISEASE AND DISORDERS” (Northwestern University, priority 2021, published 2024)",
  "key": {"[1]": {"system": "Foxp3 in human Treg cells", "assay": "Foxp3 MFI of human Treg cells treated with Usp22i-S02", "format": "cell-based", "conditions": "low doses", "experimental": "FIG. 15: Usp22i-S02 halts Usp22-mediated Foxp3 deubiquitination. A, Graphical representation of Foxp3 MFI change in WT versus 22KO iTreg cells treated with various doses of Usp22i-S02 (n=3). B, Representative histogram of Foxp3 MFI level in iTreg cells as Usp22 inhibitor concentration increases from 0-20 μg/mL. C, Cell survival of iTreg cells treated with various doses of Usp22i-S02 (n=3). D, FOXP3 and USP22 protein level in WT and 22KO mice treated with 10 μg/mL Usp22i-S02. E-F, Graphical and representative data of Foxp3 MFI of human Treg cells treated with various doses of Usp22i-S02 (n=3). G, Graphical representation of Foxp3 MFI in WT, Usp21-null, and Usp22-null Treg cells treated with Usp22i-S02 at 10 μg/mL (n=3). H, FOXP3 and USP22 protein degradation of cycloheximide (10 μg/mL) treated iTreg cells with or without the addition of 10 μg/mL of Usp22i-S02. I-J, Endogenous DUB assay IP in iTreg cells of USP22 with FOXP3 under increasing concentrations of Usp22i-S02. K, Foxp3 mRNA level in iTreg cells as Usp22 inhibitor concentration increases from 0-20 μg/mL (n=3). L, FOXP3 and USP22 level in WT iTreg cells with or without 20 μg/mL Usp22 inhibitor treated with 20 μM MG132. M, Graphical representation of the percentage of decrease of Foxp3 MFI in either WT or Usp22-null nTreg cells placed in low glucose conditions with or without the addition of 10 μg/mL of Usp22i-S02 (n=7-8). […]"}, "naïve mice": {"system": "naïve mice", "assay": "In vivo toxicity and Treg phenotype in naïve mice", "experimental": "D, Graphical representation of Foxp3 MFI upon Usp22i-S02 administration (n=5). E, Tumor growth curve of LLC1 cells subcutaneously injected in the flank of WT mice with or without the addition of 20 mg/kg/time of the Usp22 inhibitor starting at day 15, in 100 μL of oil (n=4). F-G, Representative flow cytometry plot and graphical representation of % infiltration of CD4+ and CD8+ T cells within the tumor (n=4). […] I, MFI of itTreg suppressive markers (n=3-4). […] B, D-E, G, H-I Two-way ANOVA with multiple comparisons between rows was performed to determine statistical significance. J, Unpaired two tailed T test was performed to determine significance. All data are presented as mean±stdev. NS, not significant. *P<0.05, **P<0.01, ***P<0.001, ****P<0.0001.\nA, Body weight of Usp22i-S02 treated mice verses DMSO treated controls over the course of treatment (n=4). […] B, Percent of cell populations in naïve mice treated with Usp22i-S02 relative to DMSO control (n=3-4). […] E, Percent Annexin+PI+ T cells gates on CD45+ cells in naïve mice treated with Usp22i-S02 relative to DMSO control (n=4). F-H, Organ toxicity panel (VetScan VS2 Comprehensive Diagnostic Rotor lot 1061AA2) of naïve mice treated with Usp22i-S02 relative to DMSO control (n=2-3). […] J, Weights of resected tumors at day 16 from I (n=10). K-L, Representative flow plot and graphical representation of infiltrating T cells gated on CD45+ cells (n=5). […] Q, Percent of intratumoral Treg cells from mice treated with Usp22i-S02 verses DMSO control, gated on CD4+Foxp3+ from mice (n=5). A-E, I and L, Two-way ANOVA with Sidaks's multiple comparisons between rows relative to control was performed to determine statistical significance. F-H, J, and M-Q, Two-tailed unpaired t-test was performed to determine statistical significance. All data are presented as mean±stdev. NS, not significant. *P<0.05, **P<0.01, ***P<0.001, ****P<0.0001.\nAn important aspect of a potential immunotherapeutic is its antitumor functionality paired with low immune toxicity. To determine the toxicity of Usp22i-S02 in vivo, we first determined its effects in naïve mice."}, "LLC1 tumors": {"system": "LLC1 tumors", "assay": "Established LLC1 tumors in Rag−/− mice", "format": "in vivo", "conditions": "Rag−/− mice with established LLC1 tumors, treated 3 days", "experimental": "FIG. 17: Usp22i-S02 inhibits tumor growth in vitro and in vivo. A, In vitro counts of LLC1 after treatment with Usp22i-S02 under various concentrations for 24 hours (n=2). B, In vitro viability of LLC1 after treatment with Usp22i-S02 under various concentrations for 24 hours (n=2). C, In vitro relative growth of LLC1 cells treated with 10 ug/ml of Usp22i-S02 relative to DMSO treated control for 7 days via OD600 (n=4). D, Growth curve of 1 million subcutaneously injected LLC1 cells into RAG−/− mice treated for 3 days Usp22i-S02 relative to DMSO control injections at day 15 of tumor growth (n=4). C-D, Two-way ANOVA with Sidaks's multiple comparisons between rows relative to control was performed to determine statistical significance. All data are presented as mean±stdev. NS, not significant. *P<0.05, **P<0.01, ***P<0.001, ****P<0.0001.\nAs Usp22 is also an important oncogene (43, 44), we were interested in the potential dual-therapeutic function of Usp22i-S02."}},
  "data": [
    {"smiles": "N#Cc1c2c(c(Nc3ccccc3)n3c1nc1ccccc13)CCCC2", "note": "[Chemical S02, 11-anilino-7,8,9,10-tetrahydro-benzimidazo [1,2-b] isoquinoline-6-carbonitrile]", "values": [
      {"measurement": "Foxp3 MFI", "setting": "[1]", "result": "significantly decreased Foxp3 MFI"},
      {"measurement": "cell viability", "setting": "[1]", "result": "little effect to cell viability"},
      {"measurement": "FOXP3 MFI in Treg cells from the spleen and lymph nodes", "setting": "naïve mice; WT mice, 20 mg/kg in vivo", "result": "significant drop in FOXP3 MFI"},
      {"measurement": "Treg cell death", "setting": "naïve mice; naïve mice vs DMSO control", "result": "significantly increased"},
      {"measurement": "organ toxicity (comprehensive tissue panel)", "setting": "naïve mice; naïve mice vs DMSO-treated control", "result": "no organ toxicity differences"},
      {"measurement": "weights, B cell and Teff cell percentages and proliferation, Teff cell activation", "setting": "naïve mice; naïve mice vs DMSO-treated control, 10 mg/kg twice a day for 3 days", "result": "little alteration"},
      {"measurement": "tumor growth", "setting": "LLC1 tumors", "result": "small but statistically significant decrease in tumor growth"}
    ]}
  ]
}
